Reference: PubChem BioAssay AID256 (DTP/NCI, 2004)
Inconclusive results and toxic doses are left out. How the source made its calls: active means survival T/C of 150% or more; inactive means T/C below 125% in these data.

Tested on: CD2F1 mice, L1210 leukemia ip, survival T/C
Experiment: NCI In Vivo Anticancer Drug Screen. Data for tumor model L1210 Leukemia (intraperitoneal) in CD2F1 (CDF1) mice
Details: higher = longer survival
Summary of the method: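 Antitumor effect is scored in animals hosting a serially transplanted tumor. Values compare compound-dosed animals against vehicle-only controls as a simple quotient.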

[1] = endpoint: mean survival time, dose: 100.0 mg/kg/injection, schedule: Q04DX002 (ip), vehicle: saline with Tween-80
[2] = endpoint: mean survival time, dose: 200.0 mg/kg/injection, schedule: Q04DX002 (ip), vehicle: saline with Tween-80
[3] = endpoint: mean survival time, dose: 100.0 mg/kg/injection, schedule: Q01DX009 (ip), vehicle: saline with Tween-80
[4] = endpoint: mean survival time, dose: 100.0 mg/kg/injection, schedule: Q04DX003 (ip), vehicle: saline with Tween-80
[5] = endpoint: mean survival time, dose: 200.0 mg/kg/injection, schedule: Q04DX003 (ip), vehicle: saline with Tween-80
[6] = endpoint: mean survival time, dose: 400.0 mg/kg/injection, schedule: Q04DX003 (ip), vehicle: saline with Tween-80

Measured: T/C

COc1nc(=O)n(C2C=CC(=O)O2)cc1F (stereo not drawn)
inactive: endpoint: median survival time, dose: 6.25 mg/kg/injection, schedule: Q01DX009 (ip), vehicle: saline 98 % of control | endpoint: median survival time, dose: 12.5 mg/kg/injection, schedule: Q01DX009 (ip), vehicle: saline 100 % of control | endpoint: median survival time, dose: 25.0 mg/kg/injection, schedule: Q01DX009 (ip), vehicle: saline 108 % of control | endpoint: median survival time, dose: 50.0 mg/kg/injection, schedule: Q01DX009 (ip), vehicle: saline 108 % of control | endpoint: median survival time, dose: 100.0 mg/kg/injection, schedule: Q01DX009 (ip), vehicle: saline 110 % of control

CCOP(=S)(OCC)N1CC1
inactive: [1] 104 % of control | [2] 93 % of control | endpoint: mean survival time, dose: 400.0 mg/kg/injection, schedule: Q04DX002 (ip), vehicle: saline with Tween-80 89 % of control

NC1=NC(c2ccccc2)N(c2cccc(Cl)c2)C(N)=N1 (stereo not drawn)
inactive: endpoint: mean survival time, dose: 25.0 mg/kg/injection, schedule: Q01DX001 (ip), vehicle: saline 107 % of control | endpoint: mean survival time, dose: 50.0 mg/kg/injection, schedule: Q01DX001 (ip), vehicle: saline 104 % of control | endpoint: mean survival time, dose: 100.0 mg/kg/injection, schedule: Q01DX001 (ip), vehicle: saline 101 % of control

CC(C)(O)CN
inactive: endpoint: mean survival time, dose: 25.0 mg/kg/injection, schedule: Q01DX009 (ip), vehicle: saline with Tween-80 95 % of control | endpoint: mean survival time, dose: 50.0 mg/kg/injection, schedule: Q01DX009 (ip), vehicle: saline with Tween-80 98 % of control | [3] 91 % of control

O=C(O)c1cccc(-c2c3ccc(=O)cc-3oc3cc(O)ccc23)c1
inactive: [4] 96 % of control | [5] 100 % of control | [6] 96 % of control

CCOC(=O)C(Br)C(Br)c1cccc([N+](=O)[O-])c1 (stereo not drawn)
inactive: endpoint: mean survival time, dose: 25.0 mg/kg/injection, schedule: Q01DX009 (ip), vehicle: other 98 % of control | endpoint: mean survival time, dose: 50.0 mg/kg/injection, schedule: Q01DX009 (ip), vehicle: other 98 % of control | endpoint: mean survival time, dose: 100.0 mg/kg/injection, schedule: Q01DX009 (ip), vehicle: other 101 % of control

COc1ccc(C=C(C(=O)CCN(C)C)C(=O)CCN(C)C)cc1
inactive: endpoint: median survival time, dose: 25.0 mg/kg/injection, schedule: Q01DX005 (ip), vehicle: saline 100 % of control | endpoint: median survival time, dose: 50.0 mg/kg/injection, schedule: Q01DX005 (ip), vehicle: saline 100 % of control | endpoint: median survival time, dose: 100.0 mg/kg/injection, schedule: Q01DX005 (ip), vehicle: saline 100 % of control | endpoint: median survival time, dose: 200.0 mg/kg/injection, schedule: Q01DX005 (ip), vehicle: saline 102 % of control

CC([NH-])CC[NH-].[I][Pt+2][I] (stereo not drawn)
inactive: endpoint: mean survival time, dose: 12.5 mg/kg/injection, schedule: Q04DX003 (ip), vehicle: saline with Tween-80 118 % of control | endpoint: mean survival time, dose: 25.0 mg/kg/injection, schedule: Q04DX003 (ip), vehicle: saline with Tween-80 124 % of control | endpoint: mean survival time, dose: 50.0 mg/kg/injection, schedule: Q04DX003 (ip), vehicle: saline with Tween-80 109 % of control

O=C(O)c1cccc(F)c1Cl
inactive: [1] 95 % of control | [2] 102 % of control

Clc1ccc(N=Cc2ccc3c(c2)OCO3)cc1
inactive: endpoint: mean survival time, dose: 100.0 mg/kg/injection, schedule: Q04DX003 (ip), vehicle: other 91 % of control | endpoint: mean survival time, dose: 200.0 mg/kg/injection, schedule: Q04DX003 (ip), vehicle: other 96 % of control | endpoint: mean survival time, dose: 400.0 mg/kg/injection, schedule: Q04DX003 (ip), vehicle: other 100 % of control

CC1(C)NC(=O)N(Br)C1=O
inactive: [3] 88 % of control | [4] 103 % of control | endpoint: mean survival time, dose: 200.0 mg/kg/injection, schedule: Q01DX009 (ip), vehicle: saline with Tween-80 89 % of control | [5] 96 % of control | [6] 103 % of control

CCCCCc1cccc(CC(=O)OCC)n1
inactive: endpoint: mean survival time, dose: 100.0 mg/kg/injection, schedule: Q04DX003 (ip), vehicle: saline 89 % of control | endpoint: mean survival time, dose: 200.0 mg/kg/injection, schedule: Q04DX003 (ip), vehicle: saline 94 % of control | endpoint: mean survival time, dose: 400.0 mg/kg/injection, schedule: Q04DX003 (ip), vehicle: saline 94 % of control

O=c1cc(C(Br)(Br)Br)[nH]c2ccccc12
inactive: [4] 99 % of control | [5] 97 % of control | [6] 99 % of control

NC(=S)N/N=C\c1ncccc1O
inactive: endpoint: mean survival time, dose: 25.0 mg/kg/injection, schedule: Q03HX024 (ip), vehicle: saline 120 % of control

C1CC2OC2C1 (stereo not drawn)
inactive: endpoint: mean survival time, dose: 100.0 mg/kg/injection, schedule: Q01DX009 (ip), vehicle: acetone 95 % of control | endpoint: mean survival time, dose: 200.0 mg/kg/injection, schedule: Q01DX009 (ip), vehicle: acetone 97 % of control | endpoint: mean survival time, dose: 400.0 mg/kg/injection, schedule: Q01DX009 (ip), vehicle: acetone 95 % of control

O=C(O)c1cccc2c1C(=O)c1ccccc1C2=O
inactive: endpoint: mean survival time, dose: 100.0 mg/kg/injection, schedule: Q04DX003 (ip), vehicle: Klucel (hydroxypropylcellulose) (HPC) 117 % of control | endpoint: mean survival time, dose: 200.0 mg/kg/injection, schedule: Q04DX003 (ip), vehicle: Klucel (hydroxypropylcellulose) (HPC) 101 % of control | endpoint: mean survival time, dose: 400.0 mg/kg/injection, schedule: Q04DX003 (ip), vehicle: Klucel (hydroxypropylcellulose) (HPC) 109 % of control

CC12CCC(C(=O)C1)C1(C)CCCC(=O)C21 (stereo not drawn)
inactive: endpoint: mean survival time, dose: 75.0 mg/kg/injection, schedule: Q01DX001 (ip), vehicle: other 97 % of control

CC(C)CCCC(C)C1CCC2C3CCC45CC4C(=O)CCC5(C)C3CCC12C (stereo not drawn)
inactive: endpoint: mean survival time, dose: 100.0 mg/kg/injection, schedule: Q04DX003 (ip), vehicle: acetone 102 % of control | [4] 91 % of control | endpoint: mean survival time, dose: 200.0 mg/kg/injection, schedule: Q04DX003 (ip), vehicle: acetone 93 % of control | [5] 93 % of control | endpoint: mean survival time, dose: 400.0 mg/kg/injection, schedule: Q04DX003 (ip), vehicle: acetone 89 % of control | [6] 95 % of control

COc1ccc(O)c(C=O)c1
inactive: [4] 100 % of control | [5] 110 % of control | [6] 95 % of control

CC1(C)CC(OP(=O)(c2ccccc2)c2ccccc2)CC(C)(C)N1O
inactive: endpoint: mean survival time, dose: 100.0 mg/kg/injection, schedule: Q04DX003 (ip), vehicle: water 106 % of control | endpoint: mean survival time, dose: 200.0 mg/kg/injection, schedule: Q04DX003 (ip), vehicle: water 91 % of control | endpoint: mean survival time, dose: 400.0 mg/kg/injection, schedule: Q04DX003 (ip), vehicle: water 102 % of control
